Patent US20230167075A1, “INTERLEUKIN INHIBITORS” (UNIVERSITY OF GREENWICH, priority 2020, published 2023)

Columns and labels:
Assay type in all cases: cell-based, human
Interleukin (IL)-1 beta = assay: Inhibition of secreted Interleukin-1 beta in LPS-stimulated PBMCs (cytometric bead array); conditions: PBMCs stimulated with LPS, 24 hours
Description: (§1) The compounds of formulae (I), (IA) and (IB) may be investigated for inhibition of pro-inflammatory cytokines Interleukin (IL)-1p, 2, 4, 6, 8, 13 and 17A, in peripheral blood mononuclear cells (PBMCs) isolated from fresh human buffy coats by centrifugation on Lymphoprep™ (Stemcell Technologies). All human cells are grown in cell culture medium RPMI-1640 supplemented with 1% penicillin/streptomycin and 5% heat inactivated fetal bovine serum.
(§2) PBMCs stimulated with LPS (Salmonella enterica serotype typhimurium) are incubated for 24 hours containing the compounds under investigation, reconstituted in dimethyl sulfoxide (DMSO). The secreted levels of Interleukin-1(3 is measured in the cell culture supernatant using a cytometric bead array and the cell viability is quantified using Trypan blue.

interleukin (IL)-17A = assay: Inhibition of secreted Interleukin-17A in PMA/ionomycin-stimulated PBMCs (cytometric bead array); conditions: PBMCs stimulated with PMA/ionomycin, 24 hours
Description: as §1
as §2, with “PMA/ionomycin” for “LPS (Salmonella enterica serotype typhimurium)”, “DMSO.” for “dimethyl sulfoxide (DMSO).”, “Interleukin-17A are” for “Interleukin-1(3 is”

interleukin (IL)-8 = assay: Inhibition of Interleukin-8 in PBMCs
Description: as §1

interleukin (IL)-6 = assay: Inhibition of Interleukin-6 in PBMCs
Description: as §1

IL-2 = assay: Inhibition of IL-2 release, stimulated CD4-positive T cells
Description: (§3) The compounds of formulae (I), (IA) and (IB) may be investigated for inhibition of pro-inflammatory cytokines Interleukin-2, 4 and 13 in human CD4-positive T cells isolated from fresh isolated PBMCS using a CD4-positive T cell isolation kit.
(§4) CD4-positive T cells stimulated with beads coated with antibodies against CD2, CD3 and CD28 are incubated for 48 hours containing the compounds under investigation, reconstituted in DMSO. The secreted levels of Interleukin-2, 4 and 13 are measured in the cell culture supernatant using a cytometric bead array and the cell viability is measured using an MTT (3-(4,5-dimethylthiazol-2-yl)-2,5-diphenyltetrazolium bromide) assay.
(§5) Secreted IL-4 levels may be measured using electrochemiluminescence (MSD kits, Meso Scale Discovery), while secreted IL-2 levels may be measured using proximity homogenous time-resolved fluorescence (HTRF) and the amount of living cells may be measured by addition of resazurin (PrestoBlue®).

IL-4 = assay: Inhibition of IL-4 release, stimulated CD4-positive T cells
Description: as §3, §4, §5

[1] = Inhibition of cell viability in the IL-2/IL-4 release assays; conditions: human; read-out: Max Effect, Inhibition of cell viability
Description: as §4, §5

CD4-positive T cells = assay: as above
Description: as §4, §5

Compound | inhibition of Interleukin IL-1 beta (Interleukin (IL)-1 beta) | inhibition of Interleukin IL-17A (interleukin (IL)-17A) | inhibition of Interleukin IL-8 (interleukin (IL)-8) | inhibition of Interleukin IL-6 (interleukin (IL)-6) | level of inhibition of IL-2 (in words) (IL-2) | level of inhibition of IL-4 (in words) (IL-4) | cytotoxicity at 48 h [1] [%] | inhibition of cell viability (in words) (CD4-positive T cells)
Nc1nnc(-c2sc(Cl)c(Cl)c2Cl)c(N)n1 [3,5-diamino-6-[2-(3,4,5-trichlorothienyl)]-1,2,4-triazine] | inhibitory effect | inhibitory effect | inhibitory effect | inhibitory effect |  |  |  | 
Nc1nnc(C(c2ccccc2)c2ccccc2)c(N)n1 [3,5-Diamino-6-(diphenylmethyl)-1,2,4-triazine] | moderate inhibition | high inhibition | high inhibition | moderate inhibition | good level of inhibition | good level of inhibition | 28 | without significant inhibition
